Measured values reported in US20100130477A1, “Spirocyclobutyl Piperidine Derivatives” (ASTRAZENECA AB, priority 2008, published 2010).

Biological target: T1, human Histamine H3 receptor (hH3R) (Homo sapiens, UniProt Q9Y5N1)
T1 construct: expressed in transfected cells; host or cells: CHO cells (Chinese Hamster Ovary); membranes
Assay: GTPγS Binding Assay (antagonist activity, [35S]GTPγS, (R)-α-methyl histamine 30 nM)
Format: biochemical
Conditions: membranes from CHO cells expressing hH3R, 90 minutes at room temperature
Procedure: Guanosine 5′-O-(3-[^35S]thio)triphosphate [GTPγS] Binding Assay
A GTPγS binding assay can be used to investigate antagonist properties of compounds in CHO cells (Chinese Hamster Ovary) transfected with human Histamine H3 receptor (hH3R). Membranes from CHO cells expressing hH3R (10 μg/well) are diluted in GTPγS assay buffer (20 mM Hepes, 10 mM MgCl2, 100 mM NaCl, pH 7.4) and preincubated with saponine (3 μg/ml), GDP (10 μM) and PVT-WGA SPA beads (125 μg/well) (Amersham) for 30 minutes. To determine antagonist activity, (R)-α-methyl histamine (30 nM) is added in 96 well SPA plate with [^35S]GTPγS (0.2 nM) and various concentration of H3R antagonists. The GTPγS binding assay is started with addition of the mixture membrane/saponine/GDP and incubated for 90 minutes at room temperature. The amount of bound [^35S]GTPγS is determined by using the MicroBeta Trilux counter (PerkinElmer). The percentage of [^35S]GTPγS bound in each sample is calculated as a percentage of that bound control sample incubated in absence of H3 antagonist. Duplicate determinations are obtained for each concentration, and the data are analyzed using ExcelFit4 to obtain the IC50.

T1 sequence (Q9Y5N1 whole entry): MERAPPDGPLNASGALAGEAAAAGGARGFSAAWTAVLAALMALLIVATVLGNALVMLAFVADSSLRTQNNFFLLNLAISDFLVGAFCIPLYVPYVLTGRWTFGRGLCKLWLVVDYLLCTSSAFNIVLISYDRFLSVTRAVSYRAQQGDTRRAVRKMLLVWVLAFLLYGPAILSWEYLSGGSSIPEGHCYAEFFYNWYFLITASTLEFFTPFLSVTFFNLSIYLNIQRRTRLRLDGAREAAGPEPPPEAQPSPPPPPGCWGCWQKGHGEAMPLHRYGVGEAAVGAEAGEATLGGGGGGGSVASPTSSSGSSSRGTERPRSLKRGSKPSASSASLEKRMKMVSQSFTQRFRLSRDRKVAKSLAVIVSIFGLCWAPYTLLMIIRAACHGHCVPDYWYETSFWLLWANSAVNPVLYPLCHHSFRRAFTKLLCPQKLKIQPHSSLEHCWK

Structure (SMILES) | IC50 [nM]
O=C(c1ccncc1)N1CCC2(CC1)CC(C(=O)N1CCCN(C3CCC3)CC1)C2 [Example 45, (4-cyclobutyl-1,4-diazepan-1-yl)(7-isonicotinoyl-7-azaspiro[3.5]nonan-2-yl)methanone] | 7.61
Cc1cncc(C(=O)N2CCC3(CC2)CC(C(=O)N2CCCN(C4CCC4)CC2)C3)c1 [Example 46, (4-cyclobutyl-1,4-diazepan-1-yl)(7-(5-methylnicotinoyl)-7-azaspiro[3.5]nonan-2-yl)methanone] | 5.75
O=C(c1cccnc1)N1CCC2(CC1)CC(C(=O)N1CCCN(C3CCC3)CC1)C2 [Example 47, (4-cyclobutyl-1,4-diazepan-1-yl)(7-nicotinoyl-7-azaspiro[3.5]nonan-2-yl)methanone] | 8.27
O=C(c1ccccc1)N1CCC2(CC1)CC(C(=O)N1CCCN(C3CCC3)CC1)C2 [Example 48, (7-benzoyl-7-azaspiro[3.5]nonan-2-yl)(4-cyclobutyl-1,4-diazepan-1-yl)methanone] | 12.7
N#Cc1ccc(C(=O)N2CCC3(CC2)CC(C(=O)N2CCCN(C4CCC4)CC2)C3)cc1 [Example 49, 4-(2-(4-cyclobutyl-1,4-diazepane-1-carbonyl)-7-azaspiro[3.5]nonane-7-carbonyl)benzonitrile] | 5.28
N#Cc1cccc(C(=O)N2CCC3(CC2)CC(C(=O)N2CCCN(C4CCC4)CC2)C3)c1 [Example 50, 3-(2-(4-cyclobutyl-1,4-diazepane-1-carbonyl)-7-azaspiro[3.5]nonane-7-carbonyl)benzonitrile] | 7.62
N#Cc1ccccc1C(=O)N1CCC2(CC1)CC(C(=O)N1CCCN(C3CCC3)CC1)C2 [Example 51, 2-(2-(4-cyclobutyl-1,4-diazepane-1-carbonyl)-7-azaspiro[3.5]nonane-7-carbonyl)benzonitrile] | 5.02
CC(C)N1CCCN(C(=O)C2CC3(CCN(S(C)(=O)=O)CC3)C2)CC1 [Example 52, (4-isopropyl-1,4-diazepan-1-yl)(7-(methylsulfonyl)-7-azaspiro[3.5]nonan-2-yl)methanone] | 56.4
Cc1cc(C(=O)N2CCC3(CC2)CC(C(=O)N2CCCN(C(C)C)CC2)C3)ccn1 [Example 53, (4-isopropyl-1,4-diazepan-1-yl)(7-(2-methylisonicotinoyl)-7-azaspiro[3.5]nonan-2-yl)methanone] | 160

The remaining lines, values ahead:

IC50 [nM] | Structure (SMILES)
161 | CC(C)N1CCCN(C(=O)C2CC3(CCN(C(=O)c4ccncc4)CC3)C2)CC1 [Example 54, (7-isonicotinoyl-7-azaspiro[3.5]nonan-2-yl)(4-isopropyl-1,4-diazepan-1-yl)methanone]
115 | CC(C)N1CCCN(C(=O)C2CC3(CCN(C(=O)c4cccnc4)CC3)C2)CC1 [Example 55, (4-isopropyl-1,4-diazepan-1-yl)(7-nicotinoyl-7-azaspiro[3.5]nonan-2-yl)methanone]
269 | CC(C)N1CCCN(C(=O)C2CC3(CCN(C(=O)N(C)C)CC3)C2)CC1 [Example 56, 2-(4-isopropyl-1,4-diazepane-1-carbonyl)-N,N-dimethyl-7-azaspiro[3.5]nonane-7-carboxamide]
707 | Cc1cc(C(=O)N2CCC3(CC2)CC(C(=O)N2CCN(C4CCC4)CC(C)(C)C2)C3)ccn1 [Example 57, (4-cyclobutyl-6,6-dimethyl-1,4-diazepan-1-yl)(7-(2-methylisonicotinoyl)-7-azaspiro[3.5]nonan-2-yl)methanone]
63 | CS(=O)(=O)N1CCC2(CC1)CC(C(=O)N1CCN(C3CCCC3)CC1)C2 [Example 58, (4-cyclopentylpiperazin-1-yl)(7-(methylsulfonyl)-7-azaspiro[3.5]nonan-2-yl)methanone]
368 | C[C@H]1CN(C(=O)C2CC3(CCN(S(C)(=O)=O)CC3)C2)CCN1C1CCC1 [Example 59, ((S)-4-cyclobutyl-3-methylpiperazin-1-yl)(7-(methylsulfonyl)-7-azaspiro[3.5]nonan-2-yl)methanone]
177 | CC(C)N1CCN(C(=O)C2CC3(CCN(S(C)(=O)=O)CC3)C2)C[C@H]1C [Example 60, ((R)-4-isopropyl-3-methylpiperazin-1-yl)(7-(methylsulfonyl)-7-azaspiro[3.5]nonan-2-yl)methanone]
179 | CC(C)N1CCN(C(=O)C2CC3(CCN(S(C)(=O)=O)CC3)C2)C[C@@H]1C [Example 61, ((S)-4-isopropyl-3-methylpiperazin-1-yl)(7-(methylsulfonyl)-7-azaspiro[3.5]nonan-2-yl)methanone]
4.25 | C[C@@H]1CN(C2CCC2)CCN1C(=O)C1CC2(CCN(S(C)(=O)=O)CC2)C1 [Example 62, ((R)-4-cyclobutyl-2-methylpiperazin-1-yl)(7-(methylsulfonyl)-7-azaspiro[3.5]nonan-2-yl)methanone]
21.2 | C[C@H]1CN(C2CCC2)CCN1C(=O)C1CC2(CCN(S(C)(=O)=O)CC2)C1 [Example 63, ((S)-4-cyclobutyl-2-methylpiperazin-1-yl)(7-(methylsulfonyl)-7-azaspiro[3.5]nonan-2-yl)methanone]
16.8 | N#Cc1cnccc1C(=O)N1CCC2(CC1)CC(C(=O)N1CCN(C3CCC3)CC1)C2 [Example 64, 4-(2-(4-cyclobutylpiperazine-1-carbonyl)-7-azaspiro[3.5]nonane-7-carbonyl)nicotinonitrile]
51.7 | O=C(C1CC2(CCN(c3cnccn3)CC2)C1)N1CCN(C2CCC2)CC1 [Example 65, (4-cyclobutylpiperazin-1-yl)(7-(pyrazin-2-yl)-7-azaspiro[3.5]nonan-2-yl)methanone]
10.1 | O=C(C1CC2(CCN(c3ccncc3)CC2)C1)N1CCN(C2CCC2)CC1 [Example 66, (4-cyclobutylpiperazin-1-yl)(7-(pyridin-4-yl)-7-azaspiro[3.5]nonan-2-yl)methanone]
22.9 | O=C(C1CC2(CCN(c3cncnc3)CC2)C1)N1CCN(C2CCC2)CC1 [Example 67, (4-cyclobutylpiperazin-1-yl)(7-(pyrimidin-5-yl)-7-azaspiro[3.5]nonan-2-yl)methanone]
